In patent publication US20230286929A1, “AROMATIC BRIDGED RING AMIDE DERIVATIVES FOR THE TREATMENT AND PROPHYLAXIS OF HEPATITIS B VIRUS INFECTION” (Hoffmann-La Roche Inc., priority 2020, published 2023):

Tests used:
Type in all cases: cell-based
[1] = Cytotoxicity in PHH natural infection assay (Cell Counting Kit-8); conditions: HBV-infected primary human hepatocytes, CCK8
Method: (§1) Detailed procedures regarding primary human hepatocyte (PHH) HBV natural infection assay are described as below. One tube of frozen PHH (10 million cells) is thawed in 37° C. water bath and then transferred to 20 mL of PHH thawing medium (Sigma, InVitroGRO HT Medium, Cat. S03319) with gently mixing. The cells were then centrifuged at […] for 5 min, the supernatant was discarded and the tube was refilled with 25 mL of PHH plating medium (Sigma, InVitroGRO CP Medium, Cat. 503317). The tube was shaken very gently to re-suspend all cells. 50 μl of cells were transferred to each well 384-well collagen I coated plate with appropriate liquid handling equipment, e.g. Integra VIAFLO384 or Agilent Bravo. The cells were then cultured for 24 hours in a cell incubator. For HBV infection, after PHH attachment on the culture plate, the plating medium was removed and replenished with PHH culture medium containing HBV virus. The PHH culture medium was prepared with Dulbecco's Modified Eagle Medium (DMEM)/F12 (1:1 in volume ratio) containing 10% fetal bovine serum (Gibco, Cat. 10099141), […] (Gibco, Cat. PHG03I1L), 20 ng/mL dexamethasone (Sigma, Cat. D4902-100 mg), 250 ng/mL human recombinant insulin (Gibco, Cat. 41400045) and 100 U/mL penicillin. HBV virus at 200 genome equivalent (GE) per cell with 4% PEG8000 (Sigma, Cat. P1458) containing culture medium were added to the PHH culture medium for infection. The cells were then cultured for 24 hours in cell incubator. Then the cell culture supernatant was removed. The HBV-infected PHH were cultured with sandwich culture method with PHH culture medium containing 1% DMSO and 0.25 mg/mL matrix gel for 72 hours. The supernatant was then refreshed with PHH culture medium containing different concentrations of testing compounds for two times with 72-hour interval. At the end of treatment, the supernatant was collected for viral markers measurements, including HBsAg, HBeAg, HBV DNA and cytotoxicity. HBsAg and HBeAg were detected using alphalisa method using their specific antibodies. For HBV DNA detection, HBV DNA Quantitative Fluorescence Diagnostic Kit (Sansure Biotech Inc.) was used following the manufacture's protocol. Cytotoxicity was determined using Cell Counting Kit-8 (CCK8, Dojindo Molecular Technologies, Inc.).

[2] = system: HBeAg; assay: PHH HBV natural infection assay, HBeAg (alphalisa); conditions: Hepatitis B virus, Hepatocyte, 72 h, read-out: HbeAg IC50
Method: as §1
(§2) The compounds of the present invention were tested for their capacity to inhibit HBsAg and HBeAg as described herein.

[3] = system: HBsAg; assay: PHH HBV natural infection assay, HBsAg (alphalisa); conditions: Hepatitis B virus, Hepatocyte, 72 h, read-out: HBsAg IC50
Method: as §1, §2

SMILES | CC50 at 144 h [1] [µM] | IC50 [2] [µM] | IC50 [3] [µM]
O=C(NC12CCC(c3nc4cc(Cl)ccc4o3)(CC1)CC2)c1ccc(C(F)(F)F)o1 [Example 47, N-[4-(5-chloro-1,3-benzoxazol-2-yl)-1-bicyclo[2.2.2]octanyl]-5-(trifluoromethyl)furan-2-carboxamide] | > 100 | 3.91 | 7.69
O=C(NC12CCC(c3nc4cc(Cl)ccc4o3)(CC1)CC2)C1CC2(C1)CS(=O)(=O)C2 [Example 48, N-[4-(5-chloro-1,3-benzoxazol-2-yl)-1-bicyclo[2.2.2]octanyl]-2,2-dioxo-2lambda6-thiaspiro[3.3]heptane-6-carboxamide] | > 100 | 1.03 | 1.71
O=C(NC12CCC(c3nc4cc(Cl)ccc4o3)(CC1)CC2)C1CCCS1(=O)=O (stereo not drawn) [Example 49, N-[4-(5-chloro-1,3-benzoxazol-2-yl)-1-bicyclo[2.2.2]octanyl]-1,1-dioxo-thiolane-2-carboxamide] | > 100 | 1.27 | 2.73
O=C(NC12CCC(c3nc4cc(Cl)ccc4o3)(CC1)CC2)C1CCS(=O)(=O)C1 (stereo not drawn) [Example 50, N-[4-(5-chloro-1,3-benzoxazol-2-yl)-1-bicyclo[2.2.2]octanyl]-1,1-dioxo-thiolane-3-carboxamide] | > 100 | 5.11 | 4.14
CC1(C(=O)NC23CCC(c4nc5cc(Cl)ccc5o4)(CC2)CC3)CCS(=O)(=O)C1 (stereo not drawn) [Example 51, N-[4-(5-chloro-1,3-benzoxazol-2-yl)-1-bicyclo[2.2.2]octanyl]-3-methyl-1,1-dioxo-thiolane-3-carboxamide] | > 100 | 4.87 | 9.21
O=C(NC12CCC(c3nc4cc(Cl)ccc4o3)(CC1)CC2)C1CCCS(=O)(=O)C1 (stereo not drawn) [Example 52, N-[4-(5-chloro-1,3-benzoxazol-2-yl)-1-bicyclo[2.2.2]octanyl]-1,1-dioxo-thiane-3-carboxamide] | > 100 | 1.06 | 2.76
O=C(CC1CCCS1(=O)=O)NC12CCC(c3nc4cc(Cl)ccc4o3)(CC1)CC2 (stereo not drawn) [Example 53, N-[4-(5-chloro-1,3-benzoxazol-2-yl)-1-bicyclo[2.2.2]octanyl]-2-(1,1-dioxothiolan-2-yl)acetamide] | > 100 | 1.87 | 2.28
O=C(CC1CCCS(=O)(=O)C1)NC12CCC(c3nc4cc(Cl)ccc4o3)(CC1)CC2 (stereo not drawn) [Example 54, N-[4-(5-chloro-1,3-benzoxazol-2-yl)-1-bicyclo[2.2.2]octanyl]-2-(1,1-dioxothian-3-yl)acetamide] | 43.9 | 3.22 | 3.38
O=C(CN1CCCCS1(=O)=O)NC12CCC(c3nc4cc(Cl)ccc4o3)(CC1)CC2 [Example 55, N-[4-(5-chloro-1,3-benzoxazol-2-yl)-1-bicyclo[2.2.2]octanyl]-2-(1,1-dioxothiazinan-2-yl)acetamide] | > 100 | 0.888 | 2.06
